Measured values taken from patent US20080293679A1, “Use of carotenoids and/or carotenoid derivatives/analogs for reduction/inhibition of certain negative effects of COX inhibitors” (priority 2005, published 2008).
Read-outs that look alike come from different tables or passages of the source. Marks after values point to notes of the source that are not given here.

Experiments:
[1] = format: physicochemical
Experimental: (§1) Determination of aqueous solubility/dispersibility. 30.13 mg of 3 was added to 1 mL of USP-purified water. The sample was rotated for 2 hours, then centrifuged for 5 minutes. After centrifuging, solid was visible in the bottom of the tube. A 125-μL aliquot of the solution was then diluted to 25 mL. The sample was analyzed by UV/Vis spectroscopy at 436 nm, and the absorbance was compared to a standard curve compiled from 4 standards of known concentration. The concentration of the original supernatant was calculated to be 2.85 mg/mL and the absorptivity was 36.94 AU*mL/cm*mg. Slight error may have been introduced by the small size of the original aliquot.
as §1, with “Next, 30.80” for “Determination of aqueous solubility/dispersibility. 30.13”, “9” for “3”, “411” for “436”, “The concentration of the original supernatant was calculated to be 2.85 mg/mL and the absorptivity was 36.94 AU*mL/cm*mg.” left out

[2] = tested on: superoxide anion generation from phorbol-ester (PMA)-stimulated PMNs; experiment: Direct superoxide anion scavenging by EPR spectroscopy (DEPMPO spin trap), isolated human neutrophil assay; format: cell-based
Experimental: Leukocyte Isolation and Preparation. Human polymorphonuclear leukocytes (PMNs) were isolated from freshly sampled venous blood of a single volunteer by Percoll density gradient centrifugation as described previously. Briefly, each 10 mL of whole blood was mixed with 0.8 mL of 0.1 M EDTA and 25 mL of saline. The diluted blood was then layered over 9 mL of Percoll at a specific density of 1.080 g/mL. After centrifugation at 400×g for 20 min at 20° C., the plasma, mononuclear cell, and Percoll layers were removed. Erythrocytes were subsequently lysed by addition of 18 mL of ice-cold water for 30 s, followed by 2 mL of 10×PIPES buffer (25 mM PIPES, 110 mM NaCl, and 5 mM KCl, titrated to pH 7.4 with NaOH). Cells were then pelleted at 4° C., the supernatant was decanted, and the procedure was repeated. After the second hypotonic cell lysis, cells were washed twice with PAG buffer [PIPES buffer containing 0.003% human serum albumin (HSA) and 0.1% glucose]. Afterward, PMNs were counted by light microscopy on a hemocytometer. The isolation yielded PMNs with a purity of >95%. The final pellet was then suspended in PAG-CM buffer (PAG buffer with 1 mM CaCl2 and 1 mM MgCl2).
EPR Measurements. All EPR measurements were performed using a Bruker ER 300 EPR spectrometer operating at X-band with a TM110 cavity as previously described. The microwave frequency was measured with a Model 575 microwave counter (EIP Microwave, Inc., San Jose, Calif.). To measure superoxide anion ? generation from phorbol-ester (PMA)-stimulated PMNs, EPR spin-trapping studies were performed using the spin trap DEPMPO (Oxis, Portland, Oreg.) at 10 mM. 1×10^6 PMNs were stimulated with PMA (1 ng/mL) and loaded into capillary tubes for EPR measurements. To determine the radical scavenging ability of 3 and 9 in aqueous and ethanolic formulations, PMNs were pre-incubated for 5 minutes with test compound, followed by PMA stimulation.
Instrument settings used in the spin-trapping experiments were as follows: modulation amplitude, 0.32 G; time constant, 0.16 s; scan time, 60 s; modulation frequency, 100 kHz; microwave power, 20 milliwatts; and microwave frequency, 9.76 GHz. The samples were placed in a quartz EPR flat cell, and spectra were recorded. The component signals in the spectra were identified and quantified as reported previously.

[3] = F2-isoprostane formation from DAPC lipid vesicles by GC/NCI-MS; format: biochemical; conditions: 100 nM; vehicle 140±25 ng/100 μl; mean ± S.D.
Experimental: F2-Isoprostanes are derived principally from the formation of positioned peroxyl radical isomers of arachidonic acid, endocyclization to protaglandin G2-like structures, and reduction to PGF2-like compounds. Total levels of F2-isoprostanes, in DAPC lipid vesicles prepared in the presence of vehicle or drug, were measured by GC-MS with negative chemical ionization as described by Walter et al., 2000. Peroxidation of lipids occurred over time in the absence of any exogenous initiators at 37° C. F2-Isoprostane formation was also measured independently using mass spectroscopy in a blinded study at the Antioxidant Research Laboratory, Tufts University, Boston, Mass.

[4] = Oxygen Radical Absorption Capacity (ORAC) of human plasma; format: biochemical; conditions: 1.0 μM
Experimental: The comparative effect of COX-2 selective agents on the antioxidant capacity of human plasma was assessed using the Oxygen Radical Absorption Capacity (ORAC) assay. This assay was carried out according to the method of Huang et al., 2002 with fresh plasma using a microplate fluorescence reader in 96 well format with the excitation and emission filters set at 485 and 530 nm respectively.

[5] = tested on: human LDL; experiment: MDA formation (TBARS) in isolated human LDL; format: biochemical
Experimental: (§2) The effects of the compounds on lipid peroxidation were tested in isolated human LDL. Human venous blood was collected into vacutainer tubes containing K3EDTA after a 12-hour fast. Plasma was immediately separated by centrifugation at 3000 g for 25 minutes. LDL was obtained from plasma by ultracentrifugation using a procedure similar to that reported by Chung et al, 1986 using discontinuous KBr gradient. The purity of the freshly isolated LDL was assessed by SDS-PAGE using the procedure of Laemmli, 1970.
(§3) The extent of oxidation was measured for the LDL in the absence and presence of the drugs over a range of concentrations. Malondialdehyde (MDA), a product of lipid oxidation, was measured by the reaction of this aldehyde with thiobarbituric acid in an acid medium to form a stable chromogen, referred to as thiobarbituric-acid-reactive-substances (TBARS). Purified LDL (100 μg protein/ml) was incubated for 30 minutes with either vehicle or an NSAID at various concentrations followed by addition of 50 μM CuSO4 at 37° C. Conjugated diene formation was measured by continuously monitoring the change in absorbance at 234 nm on a Beckman DU 640 spectrophotometer, as described by Esterbauer et al., 1985. Stock solutions were tested for iron contamination, which can contribute independently to lipid peroxidation and assay artifacts.

[6] = tested on: human LDL; experiment: Conjugated diene formation in isolated human LDL (CuSO4-induced oxidation); format: biochemical; conditions: 100 nM
Experimental: as §2, §3

[7] = Lipid peroxide (LOOH) formation in DAPC lipid vesicles with cholesterol (triiodide assay); format: biochemical
Experimental: The ability of astaxanthin to block the pro-oxidant effects of rofecoxib was tested in lipid vesicles reconstituted from DAPC (10 mg/ml) in physiologic buffer (0.5 mM HEPES, 154 mM NaCl, pH=7.32). The lipid vesicles also contained cholesterol at a level that reproduced physiologic conditions (0.2 cholesterol to phospholipid mole ratio). The drug effects were tested in the vesicles following addition of astaxanthin, rofecoxib or the combination of these two agents at an identical concentration (250 nM). To measure lipid peroxide (LOOH) formation, we used an assay that measures the conversion of I2 to I3^− (triiodide). This reaction takes place in the presence of LOOH in a manner that can be measured photometrically at 365 nm, El-Saadani, 1989. […] The lipid peroxidation reaction occurs gradually under normal atmospheric oxygen conditions in a shaking water bath (37° C.).

[8] = Lipid peroxide levels in DLPC multilamellar vesicles, C/P 0.2 (triiodide assay); format: biochemical; conditions: for Lipid Peroxide Levels: mean ± S.D.
Experimental: The levels of lipid peroxide formation were measured photometrically at specific time points. […] Samples were prepared in a glass test tube as described in the table above. […] Sample tubes were vortexed for 3 min to form MLVs. This assay is based on the principle of the oxidative capacity of lipid peroxides to convert […], which can be measured photometrically at […] (El-Saadani et al., 1989). […] Samples were placed in a water bath set at 37° C. Samples remained in the water bath throughout the experiment except for the temporary removal for time point extractions. • 2. […] • 3. After combining sample time point aliquots with CHOD active reagent and the diffraction buffer as described in the table above, test samples were incubated about 6 hours in darkness at ambient temperature. • 4. The absorbance ([…] nm) of the samples was measured using a spectrophotometer. • 5. […] This value was determined by adding known concentrations of I2 to the CHOD reagent. A stoichiometric relationship (slope=1.02) was observed between the amount of organic peroxides assayed and the concentration of I3^- produced.

[9] = Peroxidation study in DLPC multilamellar vesicles, C/P 0.6; format: biochemical; conditions: C/P 0.6, carotenoid 10 μM, 48 hour
Experimental: 1. Samples were prepared in a glass test tube as described in the table above. This gives a cholesterol/DLPC mole ratio of 0.6 and a final concentration of 10 μM for the carotenoids. Equal volumes of vehicle (20 μl chloroform) were added to control samples. 2. All samples were dried down under a steady stream of nitrogen gas while vortexing. 3. Samples were placed in a vacuum desiccator for 2 hours to remove residual solvent and protected from light. 4. Multi-lamellar vesicles (MLVs) were prepared by the method developed by Bangham and Standish (1965). After samples were removed from the vacuum desiccator, they were immediately resuspended in 1 ml of diffraction buffer warmed to room temperature and vortexed for 3 minutes to form MLVs.
This assay is based on the principle of the oxidative capacity of lipid peroxides to convert I2 to I3^− (triiodide), which can be measured photometrically at 365 nm (el-Saadani et al., 1989). This assay is sensitive to peroxide concentrations as low as 10 μM.
1. Samples were placed in a water bath set at 37° C. throughout the experiment. 2. Aliquots of a sample (20 μl) were extracted at a 48 hour time point as described in the table below.
3. After combining the samples with CHOD active reagent and the diffraction buffer, test samples were incubated for about 6 hours in darkness at ambient temperature. 4. The absorbance of a sample was measured photometrically at 365 nm.
Concentrations of lipid peroxides were calculated by the use of the molar absorptivity of I3^− measured at 365 nm (ε=2.46±0.25×10^4M^−1 cm^−1). This value was determined by adding known concentrations of […] to the CHOD reagent. A stoichiometric relationship (slope=1.02) was observed between the amount of organic peroxides assayed and the concentration of I3^− produced.

[10] = alone at 250 nM, 48 hour incubation at 37° C.

β,ε-carotenyl 3,3′-disuccinate sodium salt [Lutein Disuccinate Sodium Salt]
aqueous solubility/dispersibility [1]: 2850 µg/mL
Mean (% inhibition) of superoxide anion signal ([2]; 40% EtOH, 0.1 mM, listed as disodium disuccinate derivative of natural source lutein, sodium salt): did not significantly increase scavenging
Mean (% inhibition) of superoxide anion signal ([2]; 40% EtOH, 0.1 mM, sodium salt): 5.0%
Mean (% inhibition) of superoxide anion signal ([2]; Water, 0.1 mM): 0%
Mean (% inhibition) of superoxide anion signal ([2]; Water, 1.0 mM): 13.0%
Mean (% inhibition) of superoxide anion signal ([2]; Water, 3.0 mM): 61.7%
Mean (% inhibition) of superoxide anion signal ([2]; Water, 5.0 mM, listed as disodium disuccinate derivative of natural source lutein, sodium salt): ~75%
Mean (% inhibition) of superoxide anion signal ([2]; Water, 5.0 mM, listed as disuccinate lutein sodium salt, sodium salt): 75%
Mean (% inhibition) of superoxide anion signal ([2]; Water, 5.0 mM, sodium salt): 74.7%

CS(=O)(=O)c1ccc(C2=C(c3ccccc3)C(=O)OC2)cc1 [rofecoxib]
Levels of isoprostanes [3]: 190±18 ng/100 μl
reduction of ORAC value ([4]; fresh human plasma): 34%
ORAC value (AUC) ([4]; vehicle 28.1±1.2): 18.6±1.3
effect on MDA levels (TBARS) in human LDL [5]: marked increases
effect on MDA levels (TBARS) in human LDL ([5]; 50 nM, 10-fold lower than comparison drugs): significant increase
decrease in lag time for human LDL conjugated diene formation [6]: 42.8±1.5%
increase in lipid peroxide levels vs control [7, 10]: 7.4%

CC1=C(/C=C/C(C)=C/C=C/C(C)=C/C=C/C=C(C)/C=C/C=C(C)/C=C/C2=C(C)C(=O)[C@@H](O)CC2(C)C)C(C)(C)C[C@H](O)C1=O [Astaxanthin, 3,3′-dihydroxy-β,β′-carotene-4,4′-dione]
% increase (+) or decrease (−) of lipid peroxide levels compared to control ([8]; 24 Hour, carotenoid 1 μM): −6.9%^a
Lipid Peroxide Levels ([8]; 24 Hour, carotenoid 1 μM, control 218 ± 20): 203 ± 17 µM
% increase (+) or decrease (−) of lipid peroxide levels compared to control ([8]; 24 Hour, carotenoid 10 μM): −22.5%
Lipid Peroxide Levels ([8]; 24 Hour, carotenoid 10 μM, control 218 ± 20): 169 ± 7 µM
% increase (+) or decrease (−) of lipid peroxide levels compared to control ([8]; 48 Hour, carotenoid 1 μM): −12.6%^a
Lipid Peroxide Levels ([8]; 48 Hour, carotenoid 1 μM, control 572 ± 76): 500 ± 57 µM
% increase (+) or decrease (−) of lipid peroxide levels compared to control ([8]; 48 Hour, carotenoid 10 μM): −40.7%^a
Lipid Peroxide Levels ([8]; 48 Hour, carotenoid 10 μM, control 572 ± 76): 339 ± 42 µM
antioxidant/pro-oxidant effect ([8]; C/P 0.2): strong antioxidant effect
antioxidant/prooxidant activity [9]: the only antioxidant
decrease in lipid peroxidation vs control ([7]; added together with rofecoxib at equimolar concentration (250 nM)): 6.5%
decrease in lipid peroxidation vs control [7, 10]: 4.4%
